From US20240189311A1, “Combination Therapy of Obicetrapib and Ezetimibe for Use in Statin Intolerant Patients Suffering from Hyperlipidemia or Mixed Dyslipidaemia” (NEWAMSTERDAM PHARMA B.V., priority 2021, published 2024)
Read-outs that look alike come from different tables or passages of the source.

What was measured:
LDL-C = conditions: cited from earlier work
HDL-C = conditions: cited from earlier work
[1] = cited from earlier work; for Phase III clinical trial outcome (in words): anacetrapib: 30.000 patient REVEAL trial
apolipoprotein B (ApoB) = assay: Phase 2 study of obicetrapib and ezetimibe in mild dyslipidaemia: ApoB; assay type: in vivo, human; conditions: mITT population, oral once daily
Source text: (§1) Study drugs will be administered by the participant orally and once daily on Days 1 through 57. Study drugs should be administered at approximately the same time each morning, with food. On days with visits scheduled, study drugs should be administered with food following all fasted blood samples. If a participant forgets to take study drug on a given day, they should take the next dose as normal and should not take a double dose to make up for the forgotten dose.
(§2) Up to 2 weeks after the Screening Visit, participants will return to the site on Day 1 (Visit 2) to be randomized and begin treatment. Approximately 100 eligible participants (25 participants per treatment group) will be randomized in a 1:1:1:1 ratio to 1 of the following treatment groups: • Combination therapy: 5 mg obicetrapib+10 mg ezetimibe; • Obicetrapib monotherapy: 5 mg obicetrapib+placebo ezetimibe; • Ezetimibe monotherapy: placebo obicetrapib+10 mg ezetimibe; or • Placebo: placebo obicetrapib+placebo ezetimibe.
Similar MMRM models were developed to examine the percent change from Day 1 to Day 57 in LDL-C (for other pairwise treatment group comparisons beside the analysis specified for the primary efficacy endpoint, using the Friedewald formula) or ApoB. In order to maintain the overall Type 1 error rate, the secondary efficacy endpoints were tested sequentially at the 0.05 significance level according to the pre-specified order of hierarchy. This applied to the following analyses: • Percent change from Day 1 to Day 57 in LDL-C for the obicetrapib monotherapy group compared to the placebo group; • Percent change from Day 1 to Day 57 in ApoB for the combination therapy group compared to the placebo group; • Percent change from Day 1 to Day 57 in ApoB for the obicetrapib monotherapy group compared to the placebo group; • Percent change from Day 1 to Day 57 in LDL-C for combination therapy group compared to the ezetimibe monotherapy group; • Percent change from Day 1 to Day 57 in LDL-C for the obicetrapib monotherapy group compared to the ezetimibe monotherapy group; • Percent change from Day 1 to Day 57 in LDL-C, for the ezetimibe monotherapy group compared to the placebo group; and • Percent change from Day 1 to Day 57 in ApoB for the combination therapy group compared to the ezetimibe monotherapy group.

[2] = Phase 2 study: safety and tolerability (adverse events); assay type: in vivo, human
Source text: The Safety Population included all participants who received at least 1 dose of any study drug. Treatment classification was based on the actual treatment received. The Safety Population was the primary population used for the safety analyses.
The Safety Population was the primary population for the safety analyses. All safety endpoints are summarized descriptively. No statistical inference was applied to the safety endpoints.
AEs were categorized by primary system organ class (SOC) and preferred term (PT) as coded using the Medical Dictionary for Regulatory Activities (version 23.0) category designations. Summaries of AEs, including the count and percentage of participants who experienced an AE, are provided.
An overview of treatment-emergent adverse events (TEAEs) is provided, including counts and percentages of participants (and event counts).
Listings are presented specifically for TEAEs, treatment-emergent serious adverse events (TESAEs), and TEAEs leading to discontinuation of study drug.

[3] = system: low-density lipoprotein cholesterol (LDL-C); assay: Phase 2 study of obicetrapib and ezetimibe in mild dyslipidaemia: LDL-C by Friedewald formula; assay type: in vivo, human
Source text: as §1, §2
LDL-C level was collected using the following 2 approaches: • 1. At each scheduled visit, LDL-C level was calculated using the Friedewald formula; and • 2. In addition, at baseline (Day 1) and at the end of the 8-week Treatment Period (Day 57), LDL-C was measured for all participants by preparative ultracentrifugation (PUC). Primary Efficacy Endpoint Primary analysis
The primary efficacy analysis of the percent change from Day 1 to Day 57 in LDL-C was performed using a mixed model for repeated measures (MMRM) approach. The analysis included fixed effects for treatment, visit, and treatment-by-visit interaction, along with a covariate of the baseline value as a continuous covariate. Randomization was stratified by categories of LDL-C value (<3.5 mmol/L [<135 mg/dL] or >3.5 mmol/L [≥135 mg/dL]) only to ensure similar distribution of LDL-C across all treatment groups; however, the MMRM model included the original scale of the LDL-C value as a continuous covariate. The Restricted Maximum Likelihood estimation approach was used with an unstructured covariance matrix. The least squares (LS) means, standard errors, and 2-sided 95% confidence intervals (CIs) for each treatment group, for the pairwise comparisons of the combination therapy, obicetrapib monotherapy, and ezetimibe monotherapy to placebo, and for the pairwise comparisons of combination therapy and obicetrapib monotherapy versus ezetimibe monotherapy are provided. The treatment comparison was performed using a 2-sided test at the α=0.05 level of significance.
Similar MMRM models were used for the exploratory efficacy endpoints. The proportion of participants at Day 57 that achieved LDL-C<2.6 mmol/L (<100 mg/dL), LDL-C<1.8 mmol/L (<70 mg/dL), and LDL-C<1.3 mmol/L (<50 mg/dL) were examined through Logistic Regression Models for binary variables with covariates of the treatment groups and the baseline variable.
This study was a placebo-controlled, double-blind, randomized Phase 2 study in participants with mild dyslipidemia to evaluate the efficacy, safety, and tolerability of obicetrapib and ezetimibe combination therapy. The primary efficacy endpoint was percent change from Day 1 to Day 57 in LDL-C for the obicetrapib 5 mg+ezetimibe 10 mg group compared to the placebo group.

[4] = mITT population, mild dyslipidaemia, oral once daily, Day 57
[5] = mITT population, oral once daily, baseline to Day 57
[6] = torcetrapib dosed at 60 mg, Phase III clinical trials

For `CCC(CC)CC1(C(=O)Nc2ccccc2SC(=O)C(C)C)CCCCC1` [Dalcetrapib], the “Effects on LDL-C concentrations (in words)” value (LDL-C; dalcetrapib clinical trials) is listed as “minimal effects” and the “Increase of HDL-C” value (HDL-C; dalcetrapib clinical trials) is listed as 30-40%.
For `Cc1cc(C)c2c(c1)[C@@H](N(Cc1cc(C(F)(F)F)cc(C(F)(F)F)c1)c1nnn(C)n1)CCCN2C[C@H]1CC[C@H](C(=O)O)CC1` [Evacetrapib], the “Phase III clinical trial outcome (in words)” value [1] is listed as “failed to pass a futility interim analysis”.
With `O=C1[C@H](CC[C@H](O)c2ccc(F)cc2)[C@@H](c2ccc(O)cc2)N1c1ccc(F)cc1` [Ezetimibe 10 mg, (3R,4S)-1-(4-fluorophenyl)-3-[(3 S)-3-(4-fluorophenyl)-3-hydroxypropyl]-4-(4-hydroxyphenyl)azetidin-2-one] the “ApoB at Day 57, mean” value (apolipoprotein B (ApoB); mild dyslipidaemia, Day 57) was 94.8 mg/dL, the “ApoB at Day 57, median” value (apolipoprotein B (ApoB); mild dyslipidaemia, Day 57) was 94.0 mg/dL and the “Change from baseline to Day 57 in ApoB, mean” value (apolipoprotein B (ApoB); baseline to Day 57) was -9.5 mg/dL. For the same compound, the “Change from baseline to Day 57 in ApoB, median” value (apolipoprotein B (ApoB); baseline to Day 57) was -8.0 mg/dL, the “Percent change from baseline to Day 57 in ApoB, mean” value (apolipoprotein B (ApoB); baseline to Day 57) was −8.78% and the “Percent change from baseline to Day 57 in ApoB, median” value (apolipoprotein B (ApoB); baseline to Day 57) was −8.90%. The “Reduction of LDL-C levels when compared to placebo” value (LDL-C; ezetimibe mono-therapy, patients with hypercholesterolemia) was “less than 20%”, the “Participants who experienced at least 1 TEAE, number” value ([2]; Safety Population) was 8 participants and the “Participants who experienced at least 1 TEAE, percentage” value ([2]; Safety Population) was 28.6%. For the same compound, the “Participants who experienced at least 1 study drug-related TEAE, number” value ([2]; Safety Population) was 3 participants, the “Participants who experienced at least 1 study drug-related TEAE, percentage” value ([2]; Safety Population) was 10.7% and the “Participants with a TEAE with a maximum severity of moderate, number” value ([2]; Safety Population) was 4 participants. For the same compound, the “Participants with a TEAE with a maximum severity of moderate, percentage” value ([2]; Safety Population) was 14.3%, the “Participants with at least 1 TEAE that led to discontinuation of the study drug, number” value ([2]; Safety Population) was 1 participants and the “Participants with at least 1 TEAE that led to discontinuation of the study drug, percentage” value ([2]; Safety Population) was 3.6%. The “Participants who experienced a TESAE / SAE, number” value ([2]; hyperventilation and multiple fractures, both rated not related to the study drug) was “Two”, the “Participants who experienced a TESAE, percentage of participants overall” value ([2]; percentage of participants overall) was 1.8% and the “Participants who experienced a severe TEAE, number” value ([2]; severe TEAE of multiple fractures) was “One”. For the same compound, the “Participants who experienced a severe TEAE, percentage of all participants” value ([2]; severe TEAE of multiple fractures, percentage of all participants) was 0.9%, the “Number of participants that achieved LDL-C<70 mg/dL by Friedewald formula” value ([3]; Day 57) was 1 participants and the “Number of participants that achieved LDL-C<100 mg/dL by Friedewald formula” value ([3]; Day 57) was 8 participants. For the same compound, the “Percentage of participants that achieved LDL-C<70 mg/dL by Friedewald formula” value ([3]; Day 57) was 3.6%, the “Percentage of participants that achieved LDL-C<100 mg/dL by Friedewald formula” value ([3]; Day 57) was 28.6% and the “LDL-C by Friedewald formula at Day 57, mean” value [3, 4] was 109.1 mg/dL. The “LDL-C by Friedewald formula at Day 57, median” value [3, 4] was 109.0 mg/dL, the “Change from baseline to Day 57 in LDL-C by Friedewald formula, mean” value [3, 5] was -18.0 mg/dL and the “Change from baseline to Day 57 in LDL-C by Friedewald formula, median” value [3, 5] was -19.0 mg/dL. For the same compound, the “Percent change from baseline to Day 57 in LDL-C by Friedewald formula, mean” value [3, 5] was −12.69% and the “Percent change from baseline to Day 57 in LDL-C by Friedewald formula, median” value [3, 5] was −14.80%.
For `CCOC(=O)N1c2ccc(C(F)(F)F)cc2[C@@H](N(Cc2cc(C(F)(F)F)cc(C(F)(F)F)c2)C(=O)OC)C[C@H]1CC` [Torcetrapib], the “Decrease of LDL-C” value (LDL-C; [6]) is listed as 25%, the “Increase of HDL-C” value (HDL-C; [6]) is listed as 72% and the “Safety concerns in clinical development (in words)” value ([1]; torcetrapib, Phase III clinical trials) is listed as “unexpected increase in cardiovascular events and death”.
For `COc1cc(F)c(C(C)C)cc1-c1ccc(C(F)(F)F)cc1CN1C(=O)O[C@H](c2cc(C(F)(F)F)cc(C(F)(F)F)c2)[C@@H]1C` [anacetrapib], the “Phase III clinical trial outcome (in words)” value [1] is listed as “reduced major cardiovascular events (MACE)”.
